The text below walks through data of patent US9156906B2, “Glycopeptides and methods of making and using them” (THE REGENTS OF THE UNIVERSITY OF CALIFORNIA, priority 2008, dated 2015).

Data set [1] has as its system naïve CD8+ T cells of healthy A2 donors. The data set can be described thus: In vitro priming of naive cytotoxic T cells from PBMC of normal A2+ donors, 51Cr release on T2 cells.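 As to all read-outs here: CTL lines primed by co-culturing PBMC with autologous antigen-pulsed mature dendritic cells, 12 lines per antigen, lysis net of unpulsed T2 cell background.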 Type of data set: cell-based, human. The note with it: for number of specific CTL lines out of the 12, Donor 1 / number of specific CTL lines out of the 12, Donor 2 / number of specific CTL lines out of the 12, Donor 3 / number of specific CTL lines out of the 12, Donor 4 / number of specific CTL lines out of the 12, Donor 5 / number of specific CTL lines out of the 12, Donor 6 / number of specific CTL lines out of the 12, Donor 7: net specific lysis ≧20%, day 10, T2 targets 3:1 E/T; for Total number of specific CTL lines: sum over 7 donors.
Experimental: Seven A2+ healthy individuals, never exposed to HBV or HIV, between ages 40 and 57, were included in the study. Autologous, antigen-pulsed, mature dendritic cells (DC) were used as antigen presenting cells (APCs) for the in vitro priming. Autologous DC were cultured with granulocyte/macrophage colony stimulating factor (GM-CSF) (kindly provided by Kirin, Japan) and interleukin (IL) 4 (Peprotech, Rocky Hill, N.J.).
DC were previously pulsed for 2 hours with glycopeptides(s) or peptide(s). Each well defined an individual CTL line.
By using the culture conditions and IL2 regimen optimized over several years in our laboratory, the large majority of the PBMC in culture are T cells at day 10. CD8+ T cells represent the majority.
T cell cultures were tested for specificity at day 10 in a ^51Cr release assay. T2 cells (A2) were used as targets at 3:1 E/T ratio. T cell lines primed in vitro with glycopeptides were tested for the ability to recognize T2 cells pulsed with the glycopeptides, or the peptide backbones, or to untreated T2 cells (background control). Peptide-primed T cell lines were also tested for their ability to respond to peptides and cross-react with the corresponding GalNAc-O-S modified sequence.
CTL lines showing a net specific lysis ≧20% were considered specific. Carbohydrate recognition was defined as a specific response to the glycopeptides, after subtracting the background and the specific response to the corresponding peptide backbone.

The subject of data set [2] is A2 class I MHC molecules. Briefly: A2 binding affinity of glycopeptides. Further details: species or system human.
The conditions of data set [3]: clear solution with no visible particulates.
Text: Solubility is defined as a clear solution with no visible particulates.
The test system of data set [4] is MUC1/MT transgenic mice. Briefly: Glycopeptide vaccination of tumor bearing MUC1/MT transgenic mice, CTL activity by 51Cr release on EL-4. The settings on record: MUC1/MT mice 14, 18, 24 weeks old; glycopeptide in IFA; EL-4 targets.
Experimental: In these experiments, MUC1/MT mice have been chosen according to age and tumor development.
Seven days after priming, mice were sacrificed. Splenocytes from each experimental group were pooled and stimulated in vitro in the presence of the glycopeptide that was used as immunogen and irradiated B cell blasts as antigen presenting cells (APCs). After 5 days in culture, cells were collected, purified over Ficoll gradient, and T cell blasts were cultured in complete RPMI conditioned with supernatant from ConA-activated splenocytes as an IL2 source. Two days later (day 7 in culture) T cells were tested for CTL activity.
Carbohydrate and peptide specificity were studied in a standard ^51Cr release assay using the lymphoma EL-4 (H-2^b) cell line as target at different effector: target ratios (E/T) in duplicate, with and without antigens. […] Net specific lysis has been calculated by subtracting the cytolytic response to EL-4 cells alone without antigens defined as background. Data were calculated as % cytotoxicity=[(sample-spontaneous release)/(maximum release-spontaneous release)]×100.
Specificity of primary CTL cultures tested in a ^51Cr release assay is shown. […] EL-4 cells plated with T cell blasts in the absence of antigens have been assessed in duplicate at every E/T ratio to determine the extent of non-specific lysis. […]
Data set [5] concerns C57BL/6 mice. Briefly: Immunization of wild type C57BL/6 mice, generation of cytotoxic T cells. Type of data set: in vivo, mouse. The note with it: wild type C57BL/6 mice (H-2^b).
Experimental: These studies were performed in vivo by injecting Tn-containing glycopeptides in: 1) wild type mice (C57BL/6, H-2^b); and 2) MUC1/MT double transgenic mice (H-2^b) that develop spontaneous tumors expressing the Tn carbohydrate molecule within 12 weeks of age.
Data set [6] has as its system β-Gal-[1->3]-α-GalNAc-O-specific T cell clones. The data set can be described thus: 51Cr release cytotoxicity assay with TF-specific CTL clones on antigen-pulsed EL-4 targets (fine specificity, cross-reactivity). Type of data set: cell-based, mouse. The settings on record: clones B1, C3, D4, 5:1 E/T. The procedure: CTL clones were generated in C57BL/6 mice (H-2^b) immunized with a K^b-restricted designer alanine-rich glycopeptide sequence that contained TF, sequence: • AIIA(β-Gal-[1->3]-α-GalNAc-O-serine)FAAL
TF-specific CTL clones were tested for the capacity to cross-react to a glycopeptide with a completely unrelated sequence but carrying the sugar at the same position (5 within a 9mer). For this analysis, we designed a modified Sendai virus immunodominant epitope NP 324-332 (5N->5S-TF), sequence: • FAPG (β-Gal-[1->3]-α-GalNAc-O-S)YPAL This epitope is an ideal proof concept because when bonded to K^b class I MHC molecules it exposes position 5 as a major TcR contact.
To define the role of the glycosylated amino acid linker for sugar recognition by T cells, the same T cell clones were also tested for cross-reactivity to three alanine-rich glycopeptides with identical sequences as the immunogen: AIIA(β-Gal-[1->3]-α-GalNAc-O-serine)FAAL, but where TF was linked to different amino acid residues.
T cells were studied with a classic ^51Cr release cytotoxicity assay at a 5:1 effector/target (E/T) ratio. The EL-4 thymoma cell line (H-2)^b, class II MHC negative, was used as the target in these experiments. The cytolytic response to EL-4 cells in the absence of glycopeptides (background) was also assayed, and subtracted, to quantify the net specific lysis. […]

The test system of data set [7] is cancer patients. The settings on record: variety of different formulations; cited from earlier work.

Where a SMILES comes first, the peptide text is derived from it. Where no end group is shown, it is not given here. The star is where a group is joined. X1 = CC(=O)N[C@@H]1[C@@H](O[C@@H]2O[C@H](CO)[C@H](O)[C@H](O)[C@H]2O)[C@@H](O)[C@@H](CO)O[C@@H]1*; GalNAc = N-acetylgalactosamine (GalNAc, 2-acetamido-2-deoxy-D-galactopyranose); αGalNAc = CC(=O)N[C@@H]1[C@@H](O)[C@@H](O)[C@@H](CO)O[C@@H]1*

For the molecule `CC(=O)N[C@H]1[C@@H](OC[C@H](NC(=O)[C@@H]2CCCN2C(=O)[C@H](CC(C)C)NC(=O)[C@@H](N)Cc2ccccc2)C(=O)N[C@@H](CC(=O)O)C(=O)N[C@@H](Cc2ccccc2)C(=O)N[C@@H](Cc2ccccc2)C(=O)N2CCC[C@H]2C(=O)N[C@@H](CO)C(=O)N[C@H](C(=O)O)C(C)C)O[C@H](CO)[C@H](O)[C@@H]1O`, in data set [1], the “number of specific CTL lines out of the 12, Donor 1” value (from here on “number … Donor 1”) was 5; the “number of specific CTL lines out of the 12, Donor 2” value (shortened to “number … Donor 2”) is on record as 5; the “number of specific CTL lines out of the 12, Donor 3” value (“number … Donor 3” below) is 1; the “number of specific CTL lines out of the 12, Donor 4” value (from here on “number … Donor 4”) is 3. Besides, in data set [1], the “number of specific CTL lines out of the 12, Donor 5” value (shortened to “number … Donor 5”) was 4; the “number of specific CTL lines out of the 12, Donor 6” value (“number … Donor 6” below) is listed as 2; the “number of specific CTL lines out of the 12, Donor 7” value (from here on “number … Donor 7”) is 4; the “Total number of specific CTL lines” value is given as 24.

With `CC(=O)N[C@H]1[C@@H](O[C@H](C)[C@H](NC(=O)[C@H](CC(=O)O)NC(=O)[C@@H]2CCCN2C(=O)[C@H](CC(C)C)NC(=O)[C@@H](N)Cc2ccccc2)C(=O)N[C@@H](CCCNC(=N)N)C(=O)N[C@@H](Cc2ccccc2)C(=O)N[C@@H](Cc2ccc(O)cc2)C(=O)N[C@H](C(=O)O)C(C)C)O[C@H](CO)[C@H](O)[C@@H]1O` [FLPD(GalNAc-T)RFYV] (H-FLPDT(αGalNAc)RFYV-OH; N-terminus and C-terminus assumed), the “A2 affinity (in words)” value in data set [2] was “very high affinity”. For the same molecule, in data set [3], the “solubility when diluted in Dimethylsulfoxide (DMSO)” value (shortened to “solubility when diluted”) is listed as “very soluble”.

Regarding “AIIA(GalNAc-O-S)FAAL (AIIAS(GalNAc)FAAL)”, in data set [4], the “CTL activity after vaccination” value was “Strong CTL activity”.

For the molecule `CC(=O)N[C@H]1[C@@H](OC[C@H](NC(=O)[C@@H](NC(=O)[C@H](CC(C)C)NC(=O)[C@@H](N)[C@@H](C)O)[C@@H](C)O)C(=O)N[C@@H](CS)C(=O)N[C@@H](CC(N)=O)C(=O)N[C@H](C(=O)N[C@@H](CO)C(=O)N[C@H](C(=O)O)C(C)C)[C@@H](C)O)O[C@H](CO)[C@H](O)[C@@H]1O` [TLT(GalNAc-O-S)CNTSV] (H-TLTS(αGalNAc)CNTSV-OH; N-terminus and C-terminus assumed), in data set [1], the “number … Donor 1” value was determined as 7; the “number … Donor 2” value worked out at 4; the “number … Donor 3” value came out at 0; the “number … Donor 4” value came out at 1. In data set [1], the “number … Donor 5” value worked out at 5; the “number … Donor 6” value is on record as 1; the “number … Donor 7” value is 5; the “Total number of specific CTL lines” value is 23.

With `CC(=O)N[C@H]1[C@@H](O[C@H](C)[C@H](NC(=O)[C@H](CC(=O)O)NC(=O)[C@@H]2CCCN2C(=O)[C@H](Cc2ccccc2)NC(=O)[C@H](CC(C)C)NC(=O)[C@@H](N)Cc2ccccc2)C(=O)N[C@@H](CCCNC(=N)N)C(=O)N[C@@H](Cc2ccc(O)cc2)C(=O)N[C@H](C(=O)O)C(C)C)O[C@H](CO)[C@H](O)[C@@H]1O` [FLFPD(Tn-T)RYV] (H-FLFPDT(αGalNAc)RYV-OH; N-terminus and C-terminus assumed), the “A2 affinity (in words)” value in data set [2] is “very high affinity”. Also, the “solubility when diluted” value in data set [3] is “very soluble”.

For the molecule `CC(=O)N[C@H]1[C@@H](O[C@H](C)[C@H](NC(=O)[C@H](CC(=O)O)NC(=O)[C@@H]2CCCN2C(=O)[C@H](Cc2ccccc2)NC(=O)[C@H](CC(C)C)NC(=O)[C@@H](N)Cc2ccccc2)C(=O)N[C@@H](CCCNC(=N)N)C(=O)N[C@@H](C)C(=O)N[C@H](C(=O)O)C(C)C)O[C@H](CO)[C@H](O)[C@@H]1O` [FLFPD(GalNAc-T)RAV] (H-FLFPDT(αGalNAc)RAV-OH; N-terminus and C-terminus assumed), in data set [2], the “A2 affinity (in words)” value was “very high affinity”. Also, the “solubility when diluted” value in data set [3] is “very soluble”.

As for `CC[C@H](C)[C@H](NC(=O)[C@H](C)N)C(=O)N[C@H](C(=O)N[C@@H](C)C(=O)N[C@@H](CO[C@H]1O[C@H](CO)[C@H](O)[C@H](O[C@@H]2O[C@H](CO)[C@H](O)[C@H](O)[C@H]2O)[C@H]1NC(C)=O)C(=O)N[C@@H](Cc1ccccc1)C(=O)N[C@@H](C)C(=O)N[C@@H](C)C(=O)N[C@@H](CC(C)C)C(=O)O)[C@@H](C)CC` [AIIA(β-Gal-[1->3]-α-GalNAc-O-serine)FAAL] (H-AIIAS(X1)FAAL-OH; N-terminus and C-terminus assumed), the “cytotoxic T cell response generated by immunization” value in data set [5] was “generate primary and memory TF-specific cytotoxic T cells in C57BL/6 mice in the absence of Th”. Further, in data set [6], the “cytolytic response of TF-specific CTL clones to antigen (51Cr release, net lysis)” value was “high affinity/avidity”.

`CC(=O)N[C@H]1[C@@H](OC[C@H](NC(=O)[C@H](C)NC(=O)[C@H](CC(C)C)NC(=O)[C@H](C)N)C(=O)N[C@@H](C)C(=O)N[C@@H](C)C(=O)N[C@@H](C)C(=O)N[C@@H](C)C(=O)N[C@H](C(=O)O)C(C)C)O[C@H](CO)[C@H](O)[C@@H]1O` [ALA(GALNAc-O-S)SAAAAV]: the “A2 affinity (in words)” value in data set [2] is on record as “affinity slightly higher than the corresponding peptide but still efficiently”.

In the case of `CC(=O)N[C@H]1[C@@H](OC[C@H](NC(=O)CNC(=O)[C@H](CC(C)C)NC(=O)[C@H](C)N)C(=O)N[C@H](C(=O)N[C@@H](C)C(=O)N2CCC[C@H]2C(=O)N2CCC[C@H]2C(=O)N[C@H](C(=O)O)C(C)C)[C@@H](C)O)O[C@H](CO)[C@H](O)[C@@H]1O` [ALG(Tn-S)TAPPV], the “A2 affinity (in words)” value in data set [2] is “very high affinity”.

For the molecule FAPG (β-Gal-[1->3]-α-GalNAc-O-S)YPAL, in data set [6], the “cytolytic response of TF-specific CTL clones to antigen (51Cr release, net lysis)” value is listed as “good cytolytic activity”.

On to `CC(=O)N[C@@H]1[C@@H](O)[C@@H](O)[C@@H](CO)O[C@@H]1O` [Tn, α-GalNAc], for which the “safety and tolerability in clinical trials” value in data set [7] is “safe and well tolerated”.

As for `CC(=O)N[C@H]1[C@@H](OC[C@H](NC(=O)[C@H](CO)NC(=O)[C@H](Cc2ccc(O)cc2)NC(=O)[C@H](CC(C)C)NC(=O)CN)C(=O)N[C@H](C(=O)N[C@H](C(=O)N2CCC[C@H]2C(=O)N[C@H](C(=O)O)C(C)C)C(C)C)[C@@H](C)O)O[C@H](CO)[C@H](O)[C@@H]1O` [GLYS(GalNAc-O-S)TVPV], in data set [1], the “number … Donor 1” value is 6; the “number … Donor 2” value is 2; the “number … Donor 3” value was determined as 1; the “number … Donor 4” value is listed as 1. In addition, in data set [1], the “number … Donor 5” value was 4; the “number … Donor 6” value worked out at 4; the “number … Donor 7” value is on record as 2; the “Total number of specific CTL lines” value is reported as 20.
